Reference: ChEMBL document CHEMBL5154803, “Spermine-Conjugated Short Proline-Rich Lipopeptides as Broad-Spectrum Intracellular Targeting Antibacterial Agents” (J Med Chem, 2022)
pKi: −log10 of the molar value. Converted amounts (≈) assume the structure as drawn. The source made the active and inactive calls. The rule behind the calls is not given here. Where a SMILES comes first, the peptide text is derived from it. The star is where a group is joined. Lauroyl = CCCCCCCCCCCC(=O)*; Decanoyl = CCCCCCCCCC(=O)*; Spermine = NCCCNCCCCNCCCN*

Columns and labels:
[1] = test system: Escherichia coli; assay: Antibacterial activity against Escherichia coli ATCC 25922 assessed as reduction in bacterial growth measured after 18 hrs by broth microdilution method; assay type: functional
[2] = test system: Pseudomonas aeruginosa; assay: Antibacterial activity against Pseudomonas aeruginosa ATCC BAA-427 assessed as reduction in bacterial growth measured after 18 hrs by broth microdilution method; assay type: functional
[3] = test system: Acinetobacter baumannii; assay: Antibacterial activity against Acinetobacter baumannii i ATCC 19606 assessed as reduction in bacterial growth measured after 18 hrs by broth microdilution method; assay type: functional
[4] = test system: Staphylococcus aureus; assay: Antibacterial activity against Staphylococcus aureus ATCC 25923 assessed as reduction in bacterial growth measured after 18 hrs by broth microdilution method; assay type: functional
[5] = test system: Staphylococcus aureus; assay: Antibacterial activity against methicillin-resistant Staphylococcus aureus ATCC 33591 assessed as reduction in bacterial growth measured after 18 hrs by broth microdilution method; assay type: functional
[6] = test system: Staphylococcus epidermidis; assay: Antibacterial activity against Staphylococcus epidermidis ATCC 12228 assessed as reduction in bacterial growth measured after 18 hrs by broth microdilution method; assay type: functional
[7] = test system: Erythrocyte; assay: Hemolytic activity against human RBC assessed as hemolysis upto 100 uM incubated for 1 hr by ELISA plate reader analysis; assay type: toxicity, cell-based
[8] = target: trypsin (Homo sapiens, UniProt P07477+P07478+P35030); assay: Stability of compound assessed as trypsin (unknown origin)-mediated compound degradation by measuring parent compound remaining at 150 uM measured upto 4 hrs by RP-HPLC method; assay type: ADME, protein assay; settings: read-out: Stability
[9] = test system: Cell membrane; assay: Disruption of bacterial cell membrane in Escherichia coli ATCC 25922 assessed as proportion of bacteria with intact cell membrane at 1X MIC incubated for 1 hr by PI staining based flow cytometric analysis (reference value: 99.3%); assay type: subcellular
[10] = target: Bacterial 70S ribosome; assay: Binding affinity to Escherichia coli MRE600 70S ribosome assessed as inhibition constant preincubated for 90 mins followed by incubation with Rho-C12-PR-Spn for 90 mins by competitive fluorescence binding assay; assay type: subcellular
[11] = target: Bacterial 70S ribosome (Bacteria) (UniProt P0A7V0+P60723+P0AG67+P0A7R5+P0A7R9+P0A7S3+P0A7S9+P0AG59+P0ADZ4+P0A7T3+P0AG63+P0A7T7+P0A7U3+P0A7U7+P68679+P0A7V3+P0A7V8+P0A7W1+P02358+P02359+P0A7W7+P0A7X3+P0A7J3+P0A7J7+P0AA10+P0ADY3+P02413+P0ADY7+P0AG44+P0C018+P0A7K6+P0A7L0+P0A7L3+P0AG48+P61175+P0ADZ0+P60624+P68919+P0A7L8+P0A7M2+P0A7M6+P60422+P0AG51+P0A7N1+P0A7M9+P0A7N4+P0A7N9+P0A7P5+P0A7Q1+Q2EEQ2+P0A7Q6+P60438+P62399+P0AG55+P0A7K2); assay: Inhibition of 70S ribosome-mediated protein synthesis in Escherichia coli at 5XMIC incubated for 1 hr by renilla luciferase based luminescence assay; assay type: subcellular
[12] = test system: Staphylococcus aureus; assay: Additive antibacterial activity against MDR-methicillin-resistant Staphylococcus aureus ATCC BAA-44 assessed as tetracycline MIC by checkerboard assay; assay type: functional
[13] = test system: Staphylococcus aureus; assay: Additive antibacterial activity against MDR-methicillin-resistant Staphylococcus aureus ATCC BAA-44 assessed as gentamicin MIC by checkerboard assay; assay type: functional
[14] = test system: Staphylococcus aureus; assay: Synergistic antibacterial activity against MDR-methicillin-resistant Staphylococcus aureus ATCC BAA-44 assessed as fold change in ampicillin MIC by checkerboard assay; assay type: functional
[15] = test system: Staphylococcus aureus; assay: Additive antibacterial activity against MDR-methicillin-resistant Staphylococcus aureus ATCC BAA-44 assessed as fold change in tetracycline MIC by checkerboard assay; assay type: functional
[16] = test system: Staphylococcus aureus; assay: Additive antibacterial activity against MDR-methicillin-resistant Staphylococcus aureus ATCC BAA-44 assessed as fold change in gentamicin MIC by checkerboard assay; assay type: functional
[17] = test system: Staphylococcus aureus; assay: Synergistic antibacterial activity against MDR-methicillin-resistant Staphylococcus aureus ATCC BAA-44 assessed as fold change in neomycin MIC by checkerboard assay; assay type: functional
[18] = test system: Staphylococcus aureus; assay: Additive antibacterial activity against MDR-methicillin-resistant Staphylococcus aureus ATCC BAA-44 assessed as fold change in rifampicin MIC by checkerboard assay; assay type: functional
[19] = test system: Staphylococcus aureus; assay: Synergistic antibacterial activity against MDR-methicillin-resistant Staphylococcus aureus ATCC BAA-44 assessed as fold change in chloramphenicol MIC by checkerboard assay; assay type: functional
[20] = test system: Staphylococcus aureus; assay: Synergistic antibacterial activity against MDR-methicillin-resistant Staphylococcus aureus ATCC BAA-44 assessed as fractional inhibitory concentration index in presence of ampicillin by checkerboard assay; assay type: functional
[21] = test system: Staphylococcus aureus; assay: Additive antibacterial activity against MDR-methicillin-resistant Staphylococcus aureus ATCC BAA-44 assessed as fractional inhibitory concentration index in presence of tetracycline by checkerboard assay; assay type: functional
[22] = test system: Staphylococcus aureus; assay: Additive antibacterial activity against MDR-methicillin-resistant Staphylococcus aureus ATCC BAA-44 assessed as fractional inhibitory concentration index in presence of gentamicin by checkerboard assay; assay type: functional
[23] = test system: Staphylococcus aureus; assay: Synergistic antibacterial activity against MDR-methicillin-resistant Staphylococcus aureus ATCC BAA-44 assessed as fractional inhibitory concentration index in presence of neomycin by checkerboard assay; assay type: functional
[24] = test system: Staphylococcus aureus; assay: Additive antibacterial activity against MDR-methicillin-resistant Staphylococcus aureus ATCC BAA-44 assessed as fractional inhibitory concentration index in presence of rifampicin by checkerboard assay; assay type: functional
[25] = Acute toxicity in BALB/c mouse assessed as mouse survival at 10 mg/kg, ip measured for 7 days; assay type: organism-based; settings: in vivo, time 7 day
[26] = Acute toxicity in BALB/c mouse assessed as effect on locomotor activity at 10 mg/kg, ip measured for 7 days; assay type: organism-based; settings: in vivo, 168 h, time 7 day
[27] = test system: Staphylococcus aureus; assay: In vivo antibacterial activity against Staphylococcus aureus ATCC 25923 infected in BALB/c mouse model assessed as reduction of bacterial load in kidney at 5 mg/kg, ip administered as single dose measured after 24 hrs by colony counting based analysis (reference value: 2X10^4 CFU); assay type: functional
[28] = test system: Escherichia coli; assay: Antibacterial activity against Escherichia coli ATCC 25922 assessed as reduction in bacterial growth measured after 18 hrs in presence of 10% v/v human serum in MHB by broth microdilution method; assay type: functional; settings: ATCC 25922, Serum
[29] = test system: Escherichia coli; assay: Bacteriostatic activity against Escherichia coli ATCC 25922 at 1XMIC incubated for 4 hrs followed by plating on MHII agar pate for 24 hrs; assay type: functional, organism-based; settings: time 28.0 hrs
[30] = test system: Cell membrane; assay: Disruption of bacterial cell membrane in Escherichia coli ATCC 25922 assessed as proportion of bacteria with intact cell membrane at 5X MIC incubated for 1 hr by PI staining based flow cytometric analysis (reference value: 99.3%); assay type: subcellular
[31] = test system: Cell membrane; assay: Disruption of bacterial cell membrane in Escherichia coli ATCC 25922 assessed as proportion of bacteria with damaged cell membrane at 5X MIC incubated for 1 hr by PI staining based flow cytometric analysis (reference value: 0.7%); assay type: subcellular
[32] = test system: Escherichia coli; assay: Antibacterial activity against Escherichia coli MRE600 assessed as reduction in bacterial growth measured after 18 hrs by broth microdilution method; assay type: functional

| Structure (SMILES) | MIC [1] [µM] | MIC [2] [µM] | MIC [3] [µM] | MIC [4] [µM] | MIC [5] [µM] | MIC [6] [µM] | Activity [7] | remaining at 4 h, 150 µM [8] [%] | Activity [9] [%] | pKi [10] | inhibition [11] | MIC [12] [µg/mL] | MIC [13] [µg/mL] | fold change (FC) [14] | fold change (FC) [15] | fold change (FC) [16] | fold change (FC) [17] | fold change (FC) [18] | fold change (FC) [19] | fractional inhibitory concentration index (FICI) [20] | further results |
| --- | --- | --- | --- | --- | --- | --- | --- | --- | --- | --- | --- | --- | --- | --- | --- | --- | --- | --- | --- | --- | --- |
| CCCCCCCCCC(=O)N1CCC[C@H]1C(=O)N[C@@H](CCCNC(=N)N)C(=O)N1CCC[C@H]1C(=O)N[C@@H](CCCNC(=N)N)C(=O)N1CCC[C@H]1C(=O)N1CCC[C@H]1C(=O)N[C@@H](CCCNC(=N)N)C(=O)NCCCNCCCCNCCCN (Decanoyl-PRPRPPR-Spermine) | 3.1 (≈ 3.76 µg/mL) | 6.2 (≈ 7.52 µg/mL) | 6.2 (≈ 7.52 µg/mL) | 3.1 (≈ 3.76 µg/mL) | 3.1 (≈ 3.76 µg/mL) | 1.5 (≈ 1.82 µg/mL) | Non-Toxic | > 80 | 93.9 | 7.47 | Active | 31.2 | 1.25 | 2 | 2 | 2 | 1.6 | 2 | 1 | 0.313 | fractional inhibitory concentration index (FICI) [21]: 0.625; fractional inhibitory concentration index (FICI) [22]: 0.745; fractional inhibitory concentration index (FICI) [23]: 0.312; fractional inhibitory concentration index (FICI) [24]: 0.625; survival at 168 h [25]: 100%; Activity [26]: Non-Toxic; Activity [27]: <4 10^2CFU; MIC [28]: 6.2 µM; Activity [29]: Active; Activity [30]: 90.4%; Activity [31]: 9.56%; MIC [32]: 3.1 µM (≈ 3.76 µg/mL) |
| CCCCCCCCCCCC(=O)N1CCC[C@H]1C(=O)N[C@@H](CCCNC(=N)N)C(=O)N1CCC[C@H]1C(=O)N[C@@H](CCCNC(=N)N)C(=O)N1CCC[C@H]1C(=O)N1CCC[C@H]1C(=O)N[C@@H](CCCNC(=N)N)C(=O)NCCCNCCCCNCCCN (Lauroyl-PRPRPPR-Spermine) | 3.1 (≈ 3.85 µg/mL) | 6.2 (≈ 7.7 µg/mL) | 6.2 (≈ 7.7 µg/mL) | 1.5 (≈ 1.86 µg/mL) | 1.5 (≈ 1.86 µg/mL) | 1.5 (≈ 1.86 µg/mL) | Non-Toxic | > 80 | 92.9 | 7.66 | Active | 31.2 | 1.25 | 4 | 2 | 1 | 1.6 | 2 | 4 | 0.28 | fractional inhibitory concentration index (FICI) [21]: 0.625; fractional inhibitory concentration index (FICI) [22]: 0.745; fractional inhibitory concentration index (FICI) [23]: 0.312; fractional inhibitory concentration index (FICI) [24]: 1; survival at 168 h [25]: 100%; Activity [26]: Non-Toxic; Activity [27]: <4 10^2CFU; MIC [28]: 3.1 µM; Activity [29]: Active; Activity [30]: 72.7%; Activity [31]: 27.3%; MIC [32]: 3.1 µM (≈ 3.85 µg/mL) |
